The target of the test is T1, recombinant human Flag-tagged PARP7 (amino acids 456-657) (Homo sapiens, UniProt Q7Z3E1).
T1 construct: recombinant human Flag-tagged PARP7 (amino acids 456-657)
T1 sequence (Q7Z3E1 456-657): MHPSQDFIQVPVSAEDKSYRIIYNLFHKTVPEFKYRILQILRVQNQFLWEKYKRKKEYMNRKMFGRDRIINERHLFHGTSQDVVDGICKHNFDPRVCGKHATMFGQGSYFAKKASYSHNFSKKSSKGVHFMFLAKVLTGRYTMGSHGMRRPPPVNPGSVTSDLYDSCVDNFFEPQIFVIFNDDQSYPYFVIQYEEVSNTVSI
Description: PARP7 biochemical DELFIA assay (auto-MARylation). To be noted: DELFIA readout, IC50 class. The procedure, abridged: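 Flag-PARP7 (456-657), 12.5-37.5 nM stock, captured on anti-FLAG wells, preincubated 30 min with compound, then auto-MARylated with biotin-NAD+ (15 μM stock) in HEPES pH 7.5/NaCl/DTT/BSA/Tween for 2-3 h at room temperature. NAD+ quench; Eu-streptavidin DELFIA read, Ex337/Em620 nm.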

A value given as a limit tells only on which side of the number the result lay.

For the compound `CCC(COCCC(=O)N1CCN(c2ncc(C(F)(F)F)cn2)CC1)n1nc(C(F)(F)F)c2c(=O)[nH]ncc21` (stereo not shown) [Compound 297], the IC50 is ≤ 100 nM.
Regarding `CCC(COCCC(=O)N1CCN(c2ncc(C(F)(F)F)cn2)CC1)n1nc(C(F)(F)F)c2c(=O)[nH]ncc21` (stereo not shown) [Compound 298], the IC50 was ≤ 100 nM.
The figure for `O=C(CCOCCn1nc(C(F)(F)F)c2c(=O)[nH]ncc21)N1CCN(c2nc(C(F)(F)F)cs2)CC1` [Compound 299] is ≤ 100 nM; for `O=C(CCOCCn1nc(C(F)(F)F)c2c(=O)[nH]ncc21)N1CCN(c2ccc(C3CC3)cn2)CC1` [Compound 300] it is ≤ 100 nM.
Consider `O=C1CCc2cnc(N3CCN(C(=O)CCOCCn4nc(C(F)(F)F)c5c(=O)[nH]ncc54)CC3)nc2N1` [Compound 303], for which the IC50 is ≤ 100 nM.
The figure for `CNC(=O)c1ccc(N2CCN(C(=O)CCOCC(C)n3nc(C(F)(F)F)c4c(=O)[nH]ncc43)CC2)nc1` (stereo not shown) [Compound 304] is 100 to 1000 nM; for `COc1ccc(N2CCN(C(=O)CCOCC(C)n3nc(C(F)(F)F)c4c(=O)[nH]ncc43)CC2)nc1` (stereo not shown) [Compound 307] it is ≤ 100 nM; for `CC1CN(C(=O)CCOCCN2C(=O)CCc3c2cn[nH]c3=O)CCN1c1ncc(C(F)(F)F)cn1` (stereo not shown) [Compound 308] it is ≤ 100 nM.
With `CC1CN(C(=O)CCOCCN2C(=O)CCc3c2cn[nH]c3=O)CCN1c1ncc(C(F)(F)F)cn1` (stereo not shown) [Compound 309] the figure was ≤ 100 nM; with `CC(COCCC(=O)N1CCN(c2cnc(C#N)cn2)CC1)n1nc(C(F)(F)F)c2c(=O)[nH]ncc21` (stereo not shown) [Compound 312], ≤ 100 nM.
The figure for `CC(COCCC(=O)N1CCN(c2cnc(C#N)cn2)CC1)n1nc(C(F)(F)F)c2c(=O)[nH]ncc21` (stereo not shown) [Compound 313] is ≤ 100 nM; for `O=C(CCOCCn1nc(C(F)(F)F)c2c(=O)[nH]ncc21)N1CCN(c2nc(C(F)(F)F)co2)CC1` [Compound 314] it is ≤ 100 nM; for `O=C(CCOCCn1nc(C(F)(F)F)c2c(=O)[nH]ncc21)N1CCN(c2ncc(C3CC3)cn2)CC1` [Compound 315] it is ≤ 100 nM.
As for `O=C1NCCn2c(CCOCCC(=O)N3CCN(c4ncc(C(F)(F)F)cn4)CC3)cc(C(F)(F)F)c21` [Compound 316, 6-(2-(3-oxo-3-(4-(5-(trifluoromethyl)pyrimidin-2-yl)piperazin-1-yl)propoxy)ethyl)-8-(trifluoromethyl)-3,4-dihydropyrrolo[1,2-a]pyrazin-1(2H)-one], the IC50 is ≤ 100 nM.
Turning to `CN(C(=O)COCCn1nc(C(F)(F)F)c2c(=O)[nH]ncc21)C1CCN(c2ncc(C(F)(F)F)cn2)CC1` [Compound 317, N-methyl-2-(2-(4-oxo-3-(trifluoromethyl)-4,5-dihydro-1H-pyrazolo[3,4-d]pyridazin-1-yl)ethoxy)-N-(1-(5-(trifluoromethyl)pyrimidin-2-yl)piperidin-4-yl)acetamide], the IC50 is ≤ 100 nM.
With `O=C(CCOCCn1nc(C(F)(F)F)c2c(=O)[nH]ncc21)N1CCN(c2noc(C(F)(F)F)n2)CC1` [Compound 320] the figure was ≤ 100 nM.
On to `CNC(=O)c1cnc(N2CCN(C(=O)CCOCC(C)n3nc(C(F)(F)F)c4c(=O)[nH]ncc43)CC2)nc1` (stereo not shown) [Compound 325], for which the IC50 was ≤ 100 nM.
The figure for `CC(COCCC(=O)N1CCN(c2ncc(C#N)o2)CC1)n1nc(C(F)(F)F)c2c(=O)[nH]ncc21` (stereo not shown) [Compound 329] is ≤ 100 nM; for `CC(COCCC(=O)N1CCN(c2ncc(C#N)o2)CC1)n1nc(C(F)(F)F)c2c(=O)[nH]ncc21` (stereo not shown) [Compound 330] it is ≤ 100 nM.
For the compound `O=C(CCOCCn1nc(C2CC2)c2c(=O)[nH]ncc21)N1CCN(c2ncc(C(F)(F)F)cn2)CC1` [Compound 333], the IC50 was ≤ 100 nM.
With `Cc1ccc(N2CCN(C(=O)CCOCC(C)n3nc(C(F)(F)F)c4c(=O)[nH]ncc43)CC2)nc1` (stereo not shown) [Compound 334], the IC50 is ≤ 100 nM.
With `Cc1nn(C(C)COCCC(=O)N2CCN(c3ncc(Cl)cn3)CC2)c2cn[nH]c(=O)c12` (stereo not shown) [Compound 336] the figure was ≤ 100 nM; with `O=C(CCOCCn1ncc2c(=O)[nH]ncc21)N1CCN(c2ccc(C(F)(F)F)cc2)C(=O)C1` [Compound 337], 1000 to 10000 nM; with `N#Cc1cn(CCOCCC(=O)N2CCN(c3ncc(C(F)(F)F)cn3)CC2)c2cn[nH]c(=O)c12` [Compound 340], ≤ 100 nM.
For the compound `O=C(CCOCCn1cc(C(F)(F)F)c2c(=O)[nH]ncc21)N1CCN(c2nc(C(F)(F)F)cs2)CC1` [Compound 341], the IC50 was ≤ 100 nM.
With `CC(COCCC(=O)N1CCN(c2ccc(C(F)F)cn2)CC1)n1nc(C(F)(F)F)c2c(=O)[nH]ncc21` (stereo not shown) [Compound 342] the figure was ≤ 100 nM.
With `CC(COCCC(=O)N1CCN(c2ccc(C(F)F)cn2)CC1)n1nc(C(F)(F)F)c2c(=O)[nH]ncc21` (stereo not shown) [Compound 343] the figure was ≤ 100 nM.
With `CC(COCCC(=O)N1CCN(c2noc(C(F)(F)F)n2)CC1)n1nc(C(F)(F)F)c2c(=O)[nH]ncc21` (stereo not shown) [Compound 345] the figure was 100 to 1000 nM; with `CC(C)(COCCC(=O)N1CCN(c2ncc(C(F)(F)F)cn2)CC1)n1nc(C(F)(F)F)c2c(=O)[nH]ncc21` [Compound 346], ≤ 100 nM.
With `CC(COCCC(=O)N1CCN(c2ccc(F)cn2)CC1)n1nc(C(F)(F)F)c2c(=O)[nH]ncc21` (stereo not shown) [Compound 347], the IC50 is ≤ 100 nM.
With `CC(COCCC(=O)N1CCN(c2ccc(F)cn2)CC1)n1nc(C(F)(F)F)c2c(=O)[nH]ncc21` (stereo not shown) [Compound 348] the figure was ≤ 100 nM; with `CC(COCCC(=O)N1CCN(c2ncc(F)cc2F)CC1)n1nc(C(F)(F)F)c2c(=O)[nH]ncc21` (stereo not shown) [Compound 349], ≤ 100 nM; with `CC(COCCC(=O)N1CCN(c2cc(C(F)(F)F)ccn2)CC1)n1nc(C(F)(F)F)c2c(=O)[nH]ncc21` (stereo not shown) [Compound 351], ≤ 100 nM.
The figure for `CC(COCCC(=O)N1CCN(c2cc(C(F)(F)F)ccn2)CC1)n1nc(C(F)(F)F)c2c(=O)[nH]ncc21` (stereo not shown) [Compound 352] is ≤ 100 nM; for `CC(COCCC(=O)N1CCN(c2ncccc2C(F)(F)F)CC1)n1nc(C(F)(F)F)c2c(=O)[nH]ncc21` (stereo not shown) [Compound 353] it is ≤ 100 nM.
With `CC(COCCC(=O)N1CCN(c2ncccc2C(F)(F)F)CC1)n1nc(C(F)(F)F)c2c(=O)[nH]ncc21` (stereo not shown) [Compound 354] the figure was 100 to 1000 nM; with `CC(COCCC(=O)N1CCN(c2ncccc2Cl)CC1)n1nc(C(F)(F)F)c2c(=O)[nH]ncc21` (stereo not shown) [Compound 355], ≤ 100 nM.
On to `CC1(C)CN(C(=O)CCOCCn2cc(C(F)(F)F)c3c(=O)[nH]ncc32)CCN1c1ncc(C(F)(F)F)cn1` [Compound 358], for which the IC50 is ≤ 100 nM.
The figure for `O=C(CCOCCn1cc(C(F)(F)F)c2c(=O)[nH]ncc21)N1CCN(c2nc3cc(Cl)ccc3o2)CC1` [Compound 359] is ≤ 100 nM.
On to `N#Cc1ccc2oc(N3CCN(C(=O)CCOCCn4cc(C(F)(F)F)c5c(=O)[nH]ncc54)CC3)nc2c1` [Compound 361], for which the IC50 was ≤ 100 nM.
With `N#Cc1ccc2nc(N3CCN(C(=O)CCOCCn4cc(C(F)(F)F)c5c(=O)[nH]ncc54)CC3)oc2c1` [Compound 362] the figure was ≤ 100 nM; with `O=C(CCOCCn1cc(C(F)(F)F)c2c(=O)[nH]ncc21)N1CCN(c2nc(C(F)(F)F)co2)CC1` [Compound 363], ≤ 100 nM; with `O=C(CCOCCn1nc(C(F)(F)F)c2c(=O)[nH]ncc21)N1CCN(c2cc(C(F)(F)F)on2)CC1` [Compound 364], ≤ 100 nM.

(Values after patent publication US20240217968A1, “PHARMACEUTICAL COMPOUND” (DUKE STREET BIO LIMITED, priority 2021, published 2024).)
